Experimental data: the NIST ThermoML archive (doi:10.1021/je201297j)
± gives the expanded uncertainty stated by the source.

Details: Liquid, Vibrating wire viscometry

COC [dimethyl ether]
Details	viscosity [mPa·s]
243.15 K	0.2217 ± 0.0062
248.16 K	0.2097 ± 0.006
253.15 K	0.1988 ± 0.0058
258.14 K	0.1889 ± 0.0057
263.15 K	0.1796 ± 0.0055
268.14 K	0.1709 ± 0.0054
273.14 K	0.1628 ± 0.0052
278.13 K	0.1552 ± 0.0051
283.14 K	0.1479 ± 0.005
288.14 K	0.1414 ± 0.0049
293.14 K	0.1351 ± 0.0048
298.14 K	0.129 ± 0.0047
303.14 K	0.124 ± 0.0047
308.14 K	0.1181 ± 0.0046
313.14 K	0.1129 ± 0.0045
318.12 K	0.108 ± 0.0045
323.12 K	0.1031 ± 0.0044
328.12 K	0.09861 ± 0.0044
333.13 K	0.09419 ± 0.0043
338.13 K	0.08983 ± 0.0043
343.13 K	0.08575 ± 0.0042
348.13 K	0.08166 ± 0.0042
353.12 K	0.07777 ± 0.0042
358.13 K	0.07388 ± 0.0042
363.13 K	0.07014 ± 0.0041
368.13 K	0.06636 ± 0.0041
373.13 K	0.06256 ± 0.0041

viscosity [mPa·s]
Details	5000 kPa	10000 kPa	15000 kPa	20000 kPa	25000 kPa	30000 kPa
253.15 K	0.2044 ± 0.0059	0.2125 ± 0.006	0.2199 ± 0.0062	0.2314 ± 0.0064	0.2421 ± 0.0066	0.2541 ± 0.0068
263.15 K	0.1836 ± 0.0056	0.1911 ± 0.0057	0.1989 ± 0.0058	0.2068 ± 0.006	0.2156 ± 0.0061	0.2252 ± 0.0063
273.14 K	0.1669 ± 0.0053	0.1742 ± 0.0054	0.1816 ± 0.0056	0.189 ± 0.0057	0.196 ± 0.0058	0.2035 ± 0.0059
283.14 K	0.1521 ± 0.0051	0.159 ± 0.0052	0.1657 ± 0.0053	0.1724 ± 0.0054	0.1791 ± 0.0055	0.1857 ± 0.0056
293.14 K	0.1395 ± 0.0049	0.1455 ± 0.005	0.1527 ± 0.0051	0.1586 ± 0.0052	0.1652 ± 0.0053	0.1709 ± 0.0054
303.14 K	0.1276 ± 0.0047	0.134 ± 0.0048	0.1401 ± 0.0049	0.1464 ± 0.005	0.1521 ± 0.0051	0.1584 ± 0.0052
313.14 K	0.1165 ± 0.0046	0.1235 ± 0.0047	0.1294 ± 0.0048	0.1355 ± 0.0049	0.1415 ± 0.0049	0.1473 ± 0.005
323.12 K	0.107 ± 0.0045	0.1139 ± 0.0046	0.1199 ± 0.0046	0.1262 ± 0.0047	0.1316 ± 0.0048	0.137 ± 0.0049
333.12 K	0.09797 ± 0.0044	0.1049 ± 0.0044	0.1111 ± 0.0045	0.117 ± 0.0046	0.1231 ± 0.0047	0.1284 ± 0.0047
343.13 K	0.08951 ± 0.0043	0.09664 ± 0.0043	0.1036 ± 0.0044	0.1096 ± 0.0045	0.1151 ± 0.0046	0.1204 ± 0.0046
353.12 K	0.08119 ± 0.0042	0.08899 ± 0.0043	0.0959 ± 0.0043	0.1017 ± 0.0044	0.1075 ± 0.0045	0.1127 ± 0.0045
363.13 K	–	0.08181 ± 0.0042	0.08877 ± 0.0043	0.09499 ± 0.0043	0.101 ± 0.0044	0.1066 ± 0.0045
373.13 K	0.06522 ± 0.0042	0.07506 ± 0.0042	0.08237 ± 0.0042	0.08883 ± 0.0043	0.09475 ± 0.0043	0.09991 ± 0.0044
